These results are taken from patent US20240327768A1, “MICROFLUIDIC DEVICE MIMICKING TUMOR MICROENVIRONMENT” (The Texas A&M University System, priority 2021, published 2024).

In assay [1] the test system is ovarian cancer cell. The note with it: in vitro study; cited from earlier work.
The test system of assay [2] is A2780 epithelial ovarian cancer cells. In words: Cell cycle analysis of cancer cells from OTME-Chip. It is filed as cell-based, human. The note with it: OTME-Chip with extravasated platelets, compared to untreated controls; Revacept 40 μg/mL, cisplatin 6 μg/mL. The procedure:
(§1) Drugs. Cisplatin (Fisher Scientific, USA) and Revacept (Advancecor GamBH, Germany) were dissolved in DMSO and PBS/4% Mannitol/1% Sucrose respectively to prepare master stocks (1 mg/mL). These were further diluted in RMPI-1640 media to obtain respective working concentrations of cisplatin (6 μg mL^−1) and Revacept (40 μg mL^−1). They were perfused into the chip tumor chamber individually or in combination in presence or absence of extravasated platelets.
Cell cycle analysis. Cancer cells isolated via Accutase™ treatment from the chip were fixed in 70% ethanol at […] for 6 hr and permeabilized. Cells were then incubated with 100 μg mL^−1 Propidium Iodide (PI) (Sigma-Aldrich), and 50 μg mL^−1 ribonuclease A in the dark for 30 min at 37° C. Flow cytometry was performed on a BD Accuri C6 flow cytometer (BD Biosciences, USA) and cell cycle analysis was done using CellQuest Pro software.

The test system is the same in assay [3]. In words: Cancer cell ECM invasion in OTME-Chip (A2780). It is filed as cell-based, human. To be noted: OTME-Chip with extravasated platelets, analyzed for three days; Revacept 40 μg/mL, cisplatin 6 μg/mL. The source says:
OTME-Chip predicts that pharmaceutical inhibition of GPVI arrests metastasis and supports chemotherapy. The potential consequences of pharmaceutical targeting of GPVI on platelets in cancer were then investigated. There are currently no FDA-approved anti-GPVI drugs in the market. However, Revacept is an inhibitor that has been successfully evaluated against collagen-mediated platelet adhesion in phase I clinical trials of atherosclerosis and stroke. Revacept inhibited the platelet GPVI and tumor galectin-3 interaction in a colon carcinoma cell line. This drug is a fusion protein consisting of the Fc part of human IgG, a short hinge region, a specific linker sequence, and the extracellular part of human platelet GPVI with a molecular mass of 150 kDa. […] Thereafter, these chips were analyzed for three days (FIG. 7). […]
Cell invasion. […] Invasion dynamics of live stained cancer cells (green) into the Chip ECM chamber hydrogel was visualized using fluorescence microscopy (Zeiss Axio Observer; LD Plan Neofluar 10×, NA 0.4). […] Images were analyzed and processed using software ZEN 2.3 lite (ZEISS). […] The ECM invasion of cancer cells was calculated as the ratio of area occupied by invaded cancer cells in ECM chamber vs. the total area of ECM chamber.

Assay [4] has the same test system. In words: Cancer cell proliferation assay (Ki67) in OTME-Chip. The assay is classed as cell-based, human. The note with it: OTME-Chip with extravasated platelets; Revacept 40 μg/mL, cisplatin 6 μg/mL. Here is the method: as §1
Cancer cell proliferation assay. Isolated cancer cells were immunostained with monoclonal anti-Ki67 antibody-Alexa Fluor488 conjugate (Abcam). The fluorescence intensity was then measured with a plate reader using excitation/emission wavelengths of 488/519 nm. Platelet free cancer cells obtained from other chips during similar time points were kept as control. Proliferation rate was measured as a percentage ratio of fluorescent intensities of experimental and control cells.

In assay [5] the test system is growth factors (PDGF, VEGF, and TGFβ) and cytokines (IL-8, MMP9, and IL-6). In words: Growth factors and cytokines in OTME-Chip tumor chamber effluents (multiplex). The assay is classed as cell-based, human. The note with it: Revacept 40 μg/mL, cisplatin 6 μg/mL. The procedure: as §1
Growth factors and cytokines. Growth factors and cytokines present in OTME-Chip tumor chamber media effluents were measured using multiplex (xMAP) magnetic bead-based technology provided by Millipore. Media effluents collected from tumor chamber during different time points were analyzed for cytokines and growth factors using MILLIPLEX® MAP Human cytokine/chemokine magnetic bead panel kit (Millipore, CAS-HCYTOMAG-60K) by following previously established protocols. Assays were run in a pre-calibrated Luminex MAPGPIX reader. The mean fluorescent intensity (MFI) of the magnetic beads correlating with the concentration (pg/mL) of respective cytokines and growth factors was calculated using xPONENT 4.2 software and data analysis was done with Milliplex Analyst 5.1 software (Millipore). The concentration of cytokines obtained in each sample was normalized with respect to controls and the assays were run in triplicate. […]

The subject of assay [6] is metastasis and cell proliferation genes. Put plainly: Transcriptional analysis (qRT-PCR) of cancer cells from OTME-Chip. To be noted: cancer cells obtained from the chips, over time; Revacept 40 μg/mL, cisplatin 6 μg/mL. The assay is classed as cell-based, human. The procedure:
as §1
Quantitative real-time PCR. Cancer cell total RNA was isolated using the Arcturus PicoPure RNA Isolation Kit specifically (Thermofisher Scientific, CAS-KIT0214) designed to recover high-quality RNA consistently from fewer cells. Cells isolated from the Chip were washed in prescribed in buffer (0.9 mL of 1×PBS/10% BSA; 0.1 mL of 0.5 M EDTA) and total cellular RNA was isolated by using the manufacturer's protocol. […] The cDNA prepared was further used for the subsequent quantitative qRT-PCR reactions using SyBR green master mix (Applied Biosystems™ SYBR™ Green select PCR Master Mix) and gene specific primers. […] Gene expression was analyzed by quantifying the relative fold changes in mRNA levels of individual genes using comparative Cycle Threshold (CT)/ACT method.
For orientation: Real-time PCR tracks product formation cycle by cycle.

Assay [7] has as its system A2780 epithelial ovarian cancer cells. Put plainly: RNA sequencing and differential gene analysis of chip-derived tumors. The assay is classed as cell-based, human. The note with it: RNA-seq of chip-derived tumors. Here is the method: Validation of cancer cell-platelet-drug crosstalk within OTME-Chip with next generation RNA-sequencing. It was recently shown that a collaboration of organ-chip technology with RNA-seq analysis is a powerful tool to validate preclinical studies and derive unbiased clinical predictions. Therefore, to solidify insights into the platelet-tumor signaling nexus and the therapeutic effect of Revacept, transcriptomic profiling was performed of different chip-derived tumors through RNA sequencing. Through RNA sequencing and differential gene analysis, expression of 12452 genes in the OTME-Chip relative to Control-Chip was detected. Similarly, expression of 5566, 6909 and 3821 genes in the Cx-OTME-Chip, CxRx-OTME-Chip and KO-OTME-Chip respectively relative to Control-Chip was detected. […]
RNA sequencing and analysis. […] Isolated mRNA samples were then analyzed using the NextSeq 500 platform (Illumina) and sample preparation was performed using TruSeqRNA sample preparation with paired-end read length of 2×75 bases (Molecular Genomics Workspace, Texas A&M University, College Station, TX). Then HISAT2 was used to splice align the reads to latest ENSEMBL-release-102 human genome/transcriptome (GRCh38.p13). […] Differentially expressed genes were then evaluated for all groups using DESeq2 package in R®. […]

For `CC(=O)Oc1ccccc1C(=O)O` [aspirin, acetylsalicylic acid], the “platelet-induced ovarian cancer cell invasion” value in assay [1] is recorded as “attenuated”.
Take `N.N.[Cl][Pt][Cl]` [cisplatin, reference compound]: the “G2/M phase in cancer cells” value in assay [2] is on record as “modest effect”. Moreover, the “ECM invasion of cancer cells / tumor invasiveness” value in assay [3] is listed as “modest effect”. In assay [4], the “proliferation rate of the cancer cells” value is on record as “modest effect”. Also, the “concentration of growth factors (PDGF, VEGF, TGFβ) and cytokines (IL-8, MMP9, IL-6)” value in assay [5] was “modest effect”. Moreover, the “platelet-induced upregulation of metastasis and cell proliferation genes” value in assay [6] was “altered overtime modestly”. In addition, in assay [7], the “expression of genes of signaling pathways (NFκB, TGFβ/Smad, Hippo, MAPK, mTOR, Notch, PI3-Akt, Wnt), volcano plots” value is reported as “reduced”. In addition, in assay [7] (different chip conditions), the “expression of these pathways, heatmaps of expression profiles” value was “downregulated”.
